# In patent US20240091169A1, “POL[…] FOR TREATING INFLAMMATORY DISEASES” (UNIVERSITY OF SOUTH CAROLINA, priority 2022, published 2024):
# Key:
# [1] = tested on: bone marrow derived macrophages (BMDMs); assay: CCK-8 cell viability of BMDMs; format: cell-based, C57BL/6 mice; details: Mus musculus, BMDM, 24 hr, read-out: IC50, cell survival of BMDMs
# Protocol: Bone marrow-derived macrophages (BMDMs) were isolated from healthy 10-14-week-old C57BL/6 male mice. Briefly, mice were euthanized by isoflurane overdose. Femurs were cleared of muscle and debris. The epiphyses of the femurs were cut and placed knee-down and spun down in a 1.5 mL tube. Bone marrow was collected and resuspended in complete DMEM (cDMEM; 10% FBS, 1% penicillin/streptomycin) and passed through two 100 μm strainers. Cells were plated on an untreated 10 cm dish in cDMEM and allowed to incubate at 37° C. for 4 hr. Adherent/mature monocytes and dendritic cells were discarded, while floating/immature monocytes were collected. Cells were subjected to RBC lysis and resuspended in bone marrow maintenance media (BMMM; 20% L929-conditioned media in cDMEM). Cells were then plated on surface-treated 6-well plates at a 250 k cells/well seeding density. On day 3, fresh BMMM was added. On day 5, media was aspirated and fresh BMMM was added. […] Cells were stained and analyzed for macrophages via flow cytometry as described above with the addition of analyzing macrophage phenotypes. From the CD11b^+CD68^+ macrophage population, macrophage phenotypes were determined based on CD206 and CD11c expression. […] All cells were measured using a FACS Aria II (BD) and analyzed using FlowJo (BD Biosciences). […]
# [2] = tested on: AOM/DSS-induced CRC; assay: AOM/DSS mouse model of colorectal cancer (CRC); format: in vivo, C57BL/6 mice
# [3] = tested on: BMDMs incubated with IL-4 (M2 media); assay: M2 macrophage polarization of BMDMs with IL-4 (flow cytometry); format: cell-based, C57BL/6 mice; details: 1 μM PA, M2 media (IL-4), 24 hr, vs VEH
# Protocol: Bone marrow-derived macrophages (BMDMs) were isolated from healthy 10-14-week-old C57BL/6 male mice. Briefly, mice were euthanized by isoflurane overdose. Femurs were cleared of muscle and debris. The epiphyses of the femurs were cut and placed knee-down and spun down in a 1.5 mL tube. Bone marrow was collected and resuspended in complete DMEM (cDMEM; 10% FBS, 1% penicillin/streptomycin) and passed through two 100 μm strainers. Cells were plated on an untreated 10 cm dish in cDMEM and allowed to incubate at 37° C. for 4 hr. Adherent/mature monocytes and dendritic cells were discarded, while floating/immature monocytes were collected. Cells were subjected to RBC lysis and resuspended in bone marrow maintenance media (BMMM; 20% L929-conditioned media in cDMEM). Cells were then plated on surface-treated 6-well plates at a 250 k cells/well seeding density. On day 3, fresh BMMM was added. On day 5, media was aspirated and fresh BMMM was added. For M2 macrophage polarization experiments, 6-day mature macrophages were given either cDMEM+VEH, M2 media (cDMEM with 10 ng/mL IL-4)+VEH, or M2 media+1 μM PA. Cells were incubated for 24 hr. For C26 colon tumor conditioned media (C26 CM) experiments, 6-day mature macrophages were given either serum-free media (SFM)+VEH, 33% C26-conditioned media (C26 CM)+VEH, or 33% C26 CM+1, 2.5, or 5 μM PA. Cells were incubated for 48 hr. After incubation with these different treatments, cells were washed twice with PBS and incubated with 5 mM EDTA PBS at 4° C. for 20 min. Cells were then gently scraped and transferred into flow tubes, spun at 1600 rpm at 4° C. for 5 min, and washed in PBS before antibody staining. Cells were stained and analyzed for macrophages via flow cytometry as described above with the addition of analyzing macrophage phenotypes. From the CD11b^+CD68^+ macrophage population, macrophage phenotypes were determined based on CD206 and CD11c expression. […] All cells were measured using a FACS Aria II (BD) and analyzed using FlowJo (BD Biosciences). […]
# [4] = females, males, and sexes combined, vs VEH, p≤0.05
# [5] = proximal colon (tumors intact) RT-qPCR, vs VEH, p≤0.05
# [6] = proximal colon RT-qPCR, vs VEH, p≤0.05
# [7] = proximal colon qRT-PCR, vs VEH, p≤0.05
# [8] = removed tumors RT-PCR, vs VEH, p≤0.05
structure (smiles),measurement,setting,value
"C=CC(O)C#CC#CC/C=C\CCCCCCC (stereo in doubt) [PA, 3(R)-(9Z)-heptadeca-1,9-dien-4,6-diyn-3-ol]",IC50,[1],~7 µM
same,survival,"[2]; 2.5 mg/kg p.o. 3x/week, 12 weeks, vs AOM/DSS+VEH, FIG. 1B","appears to improve survival, although non-significant"
same,goblet cells per crypt,"[2]; Alcian Blue, distal colon, no difference between CF and PA",completely rescued
same,Foxp3 gene expression in tumors,"[2]; RT-qPCR, vs VEH, p≤0.05",decrease
same,colonoscopy score: focal lesions,"[2]; after 12 weeks, vs VEH",no significant difference
same,colonoscopy score: perianal findings,"[2]; after 12 weeks, vs VEH, p=0.08",no significant difference
same,colonoscopy score: inflammation,"[2]; after 12 weeks, vs VEH, p≤0.05",significant reductions
same,colonoscopy score: intestinal bleeding,"[2]; after 12 weeks, vs VEH, p≤0.05",significant reductions
same,colonoscopy score: transparency of the colonic wall,"[2]; after 12 weeks, vs VEH, p≤0.05","significant reduction (i.e., improvement)"
same,colonoscopy tumor score,"[2]; after 12 weeks, vs VEH, p≤0.05",significantly reduced
same,abundance of CD11b+CD68+ macrophages in colonic lamina propria,"[2]; colons with tumors intact, flow cytometry, vs VEH, p≤0.05",significantly decreased
same,submucosal invasion and destruction of the crypts (H&E),"[2]; distal colon, vs VEH",did not appear as severe
same,large tumors (>2 mm),"[2]; females and sexes combined, vs VEH, p≤0.05",significant reduction
same,number of medium sized tumors (1-2 mm),[2]; [4],significantly reduced
same,total number of tumors,[2]; [4],significantly reduced
same,abundance of neutrophils in the colon,"[2]; flow cytometry, n=2-3/group, statistics not performed",appeared to protect against the increased abundance
same,relative abundance of macrophages in colons following tumor removal,"[2]; flow cytometry, increase with VEH vs CF, p≤0.05",ameliorated
same,F4/80 immunofluorescence staining in colonic tumors,"[2]; pan macrophage marker, n=3/group",reduction in macrophages
same,CD68 gene expression,[2]; [5],significantly suppressed
same,MSR-1 gene expression,[2]; [5],significantly suppressed
same,mannose receptor C type 1 (Mrc1) gene expression,[2]; [5],significantly suppressed
same,IL-1β gene expression,[2]; [6],significant downregulation
same,IL-6 gene expression,[2]; [6],significant downregulation
same,IL-10 gene expression,[2]; [6],significantly downregulated
same,IL-13 gene expression,[2]; [6],significantly downregulated
same,TGF-β1 gene expression,[2]; [6],significantly downregulated
same,neutrophil marker Ly6g gene expression,[2]; [6],significantly downregulated
same,Muc1 gene expression,"[2]; proximal colon qRT-PCR, vs VEH, p=0.08",slightly but non-significantly reduced
same,Muc2 gene expression,[2]; [7],significantly increased
same,occludin (OCLN) gene expression,[2]; [7],upregulated
same,tight junction protein 3 (TJP3) gene expression,[2]; [7],upregulated
same,gene expression of pro-apoptotic marker Bax in colonic tumors,"[2]; qRT-PCR, vs VEH, p=0.09","increased, although non-significant"
same,TGF-01 gene expression in tumors,"[2]; removed tumors RT-PCR, vs VEH, p=0.08",suppressed
same,CD68 gene expression in tumors,[2]; [8],significantly suppressed
same,IL-6 gene expression in tumors,[2]; [8],suppressed
same,IL-13 gene expression in tumors,[2]; [8],suppressed
same,small tumors (≤1 mm),"[2]; sexes combined, reduction observed, p=0.08",did not reach statistical significance
same,colonic TCRβ+FoxP3+ T-regs,"[2]; tumor-removed colons, flow cytometry, between VEH and PA",no difference
same,percentage of Ki67 positive cells in colonic tumors,"[2]; vs VEH, p≤0.05",significant decreased
same,percentage of apoptotic cells (TUNEL) in colonic tumors,"[2]; vs VEH, p≤0.05",significant increase
same,"overall symptom score (bodyweight loss, stool consistency, rectal bleeding)","[2]; weeks 1-3, 5-7 and 10-12, vs VEH, FIG. 1C",significantly suppressed
same,circulating lymphocytes,"[2]; whole blood, end of study, PA vs VEH",no difference between VEH- and PA-treated groups
same,total WBCs,"[2]; whole blood, end of study, across groups",no change
same,circulating monocytes,"[2]; whole blood, end of study, increase with VEH vs CF, p≤0.05",rescued
same,neutrophil to lymphocyte ratio (NLR),"[2]; whole blood, end of study, p≤0.05",decrease
same,circulating neutrophils,"[2]; whole blood, end of study, vs VEH, p≤0.05",ameliorate the significant increase
same,naïve M0 macrophages,[3]; p=0.06,increased
same,M2 macrophages,[3]; p=0.08,non-significantly reduced
same,transitional M1-M2 macrophages,[3]; p=0.12,non-significantly reduced
